Assay results from patent publication US20150258194A1, “MODULATING TRANSENDOTHELIAL MIGRATION AND RECRUITMENT OF GRANULOCYTES BY MODULATING C-MET PATHWAY” (VIB VZW, priority 2012, published 2015).

How the values were obtained:
[1] = tested on: Met expression in neutrophils; test: Q-PCR / Western blot of Met expression in mouse neutrophils; format: cell-based
Protocol: Western blot: 2×10^6 bone marrow neutrophils from WT mice were stimulated with TCM, CCM, 100 ng/ml of murine TNF-α (or mock medium 0% FBS or 10% FBS as control) for 20 hours at 37° C. For the co-culture with HUVEC, a monolayer of HUVEC was stimulated for 4 hours with 5 ng/ml IL-1 at 37° C., and washed before neutrophil seeding. After 20 hours of stimulation, neutrophils were collected using Cell Dissociation Buffer, Enzyme Free, PBS-Based (Gibco). Cells were washed in PBS, lysed in 15 μl of a protease inhibitor mixture and incubated for 15 minutes on ice. The stock solution was obtained by dissolving one tablet of Complete Mini protease inhibitor mixture (CI, Roche) in 5 ml of PBS with 2 mM diisopropyl fluorophosphate (DFP; Acros Organics, Morris Plains, N.J.). After addition of an equal amount of 2×SDS sample buffer supplemented with 4% 2-mercaptoethanol, the lysates were boiled for 15 minutes and kept at -80° C. until use. 30×10^6 neutrophils purified from healthy volunteer blood and stimulated with A549-CM, 100 ng/ml of human TNF-α, 50 ng/ml LPS (or mock medium 10% FBS as control) for 20 hours. Cells were incubated with DFP 2.7 mM for 15' at 4° C., collected and washed in PBS, DFP 2.7 mM, CI 1X, and lysed in hot […] buffer (25% SDS 10%, 25% Tris-HCl pH 6.8) at 96° C. for 10'. Cell lysates were sonicated, cleared and quantified. 6× loading buffer was added before loading on the gel. The following antibodies were used: mouse anti-mouse Met (clone 3D4; Invitrogen), mouse anti-mouse β-actin (Santa Cruz), rabbit anti-human Met (clone D1C2-XP; Cell Signaling), HRP-conjugated anti-beta-tubulin (Abcam). Signal was visualized by Enhanced Chemiluminescent Reagents (ECL, Invitrogen) or West Femto by Thermo Scientific according to the manufacturer's instructions. Quantitative RT-PCR: for mRNA analysis, 1×10^5 or 3×10^5 mouse or human neutrophils, respectively, were incubated in normoxic (21% oxygen) or hypoxic condition (1% oxygen) or stimulated with TCM (plus 50 μg/ml Enbrel or human IgG when indicated), CCM, A549-CM, 100 ng/ml of murine or human TNF-α, 50 ng/ml LPS, or mock medium in 96-multiwell for 4 hours at 37° C. 2×10^5 HUVEC were seeded in 24-multiwell coated with 0.1% gelatin and stimulated with 5 ng/ml IL-1 in DMEM 10% FBS for 4 hours at 37° C. Cells were washed in PBS, collected in RLT buffer (QIAGEN®) and kept at -80° C. RNA was extracted with an RNase Micro kit (QIAGEN®) according to manufacturer's instructions. Reverse transcription to cDNA was performed with the SuperScript III Reverse Transcriptase (Invitrogen) according to manufacturer's protocol. […]

[2] = tested on: MET expression in human neutrophils; test: Q-PCR / Western blot of MET expression in human neutrophils; format: cell-based; details: Enbrel
Protocol: Western blot: 2×10^6 bone marrow neutrophils from WT mice were stimulated with TCM, CCM, 100 ng/ml of murine TNF-α (or mock medium 0% FBS or 10% FBS as control) for 20 hours at 37° C. For the co-culture with HUVEC, a monolayer of HUVEC was stimulated for 4 hours with 5 ng/ml IL-1 at 37° C., and washed before neutrophil seeding. After 20 hours of stimulation, neutrophils were collected using Cell Dissociation Buffer, Enzyme Free, PBS-Based (Gibco). Cells were washed in PBS, lysed in 15 μl of a protease inhibitor mixture and incubated for 15 minutes on ice. The stock solution was obtained by dissolving one tablet of Complete Mini protease inhibitor mixture (CI, Roche) in 5 ml of PBS with 2 mM diisopropyl fluorophosphate (DFP; Acros Organics, Morris Plains, N.J.). After addition of an equal amount of 2×SDS sample buffer supplemented with 4% 2-mercaptoethanol, the lysates were boiled for 15 minutes and kept at -80° C. until use. […] Cell lysates were sonicated, cleared and quantified. […] Quantitative RT-PCR: for mRNA analysis, 1×10^5 or 3×10^5 mouse or human neutrophils, respectively, were incubated in normoxic (21% oxygen) or hypoxic condition (1% oxygen) or stimulated with TCM (plus 50 μg/ml Enbrel or human IgG when indicated), CCM, A549-CM, 100 ng/ml of murine or human TNF-α, 50 ng/ml LPS, or mock medium in 96-multiwell for 4 hours at 37° C. […]

## Enbrel [reference compound]
[1]; TCM, 50 μg/ml Enbrel
  Met induction in mouse neutrophils stimulated with TCM: abolishment of Met induction
[1]; mouse neutrophils, HUVEC (IL-1), TNF-a blockade
  Met induction in neutrophils upon co-culture with activated ECs: prevented Met induction
[2]
  Met induction in human neutrophils stimulated with A549-CM: abolishment of Met induction
